The results in this text go back to US6211154A, “Ketoheterocyclic inhibitors of factor Xa” (COR Therapeutics, Inc., priority 1995, dated 2001).

The nature of this assay: Coagulation parameters (aPTT, PT) in blood samples of the rabbit venous thrombosis model. The class given is in vivo. Conditions: steady state, mean±SD. The source says: All measurements are an average of all samples after steady state administration of vehicle or (D)--Arg--G|y--Arg--thiazole. Values are expressed as mean±SD.

Molecules are shown by their SMILES.

Consider `NC(N)=NCCCC(N)C(=O)NCC(=O)NC(CCCN=C(N)N)C(=O)c1nccs1` [H-D-Arg-Gly-Arg-thiazole, H--(D)--Arg--Gly--Arg--Thiazole], for which the “PT fold increase over baseline” value runs as follows: (50 μg/kg + 1.28 μg/kg/min) 1.00 ± 0.00 fold; (75 μg/kg + 1.93 μg/kg/min) 1.00 ± 0.00 fold; (100 μg/kg + 2.57 μg/kg/min) 0.83 ± 0.00 fold.
